Data taken from ChEMBL document CHEMBL5143529, “Design, synthesis, and biological evaluation of novel (4-(1,2,4-oxadiazol-5-yl)phenyl)-2-aminoacetamide derivatives as multifunctional agents for the treatment of Alzheimer's disease” (Eur J Med Chem, 2022).

Experiments:
[1] = Cytotoxicity against rat PC-12 cells assessed as cell viability at 25 uM incubated for 24 hrs by MTT assay relative to control; format: toxicity, cell-based; conditions: read-out: Activity
[2] = Cytotoxicity against rat PC-12 cells assessed as cell viability at 50 uM incubated for 24 hrs by MTT assay relative to control; format: toxicity, cell-based; conditions: read-out: Activity
PC-12 [3] = assay: Neuroprotective activity against H202-induced cell death in rat PC-12 cells assessed as cell viability at 20 uM pretreated for 3 hrs followed by H2O2 stimulation and measured after 24 hrs by MTT assay relative to control; format: functional; conditions: time 27 hrs, read-out: Activity
PC-12 [4] = assay: Neuroprotective activity against H202-induced cell death in rat PC-12 cells assessed as cell viability at 5 uM pretreated for 3 hrs followed by H2O2 stimulation and measured after 24 hrs by MTT assay relative to control; format: functional; conditions: time 27 hrs, read-out: Activity
Acetylcholinesterase = Acetylcholinesterase (Electrophorus electricus, UniProt O42275); assay: Inhibition of electric eel AChE using acetylthiocholine iodide as substrate preincubated for 20 mins followed by substrate addition and measured after 5 mins by DTNB-reagent based Ellman's method
Acetylcholinesterase, sequence (O42275 whole entry): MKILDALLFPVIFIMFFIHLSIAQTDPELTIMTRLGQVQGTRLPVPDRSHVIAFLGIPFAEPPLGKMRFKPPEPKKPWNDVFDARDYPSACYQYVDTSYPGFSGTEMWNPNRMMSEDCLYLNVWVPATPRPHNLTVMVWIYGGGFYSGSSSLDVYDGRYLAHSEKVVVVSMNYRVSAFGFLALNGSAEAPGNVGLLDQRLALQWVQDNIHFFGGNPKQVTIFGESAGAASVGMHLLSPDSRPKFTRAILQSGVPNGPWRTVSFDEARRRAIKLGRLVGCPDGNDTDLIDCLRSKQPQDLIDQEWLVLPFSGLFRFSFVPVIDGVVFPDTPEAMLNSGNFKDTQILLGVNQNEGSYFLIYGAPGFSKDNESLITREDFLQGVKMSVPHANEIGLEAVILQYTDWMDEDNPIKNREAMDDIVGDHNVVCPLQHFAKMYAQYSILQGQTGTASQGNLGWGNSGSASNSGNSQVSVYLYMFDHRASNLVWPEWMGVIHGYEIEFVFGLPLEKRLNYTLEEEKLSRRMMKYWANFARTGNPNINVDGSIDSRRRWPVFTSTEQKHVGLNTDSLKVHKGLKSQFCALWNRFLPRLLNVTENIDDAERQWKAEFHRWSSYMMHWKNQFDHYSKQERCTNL

Cholinesterase = Cholinesterase (Equus caballus, UniProt P81908)
Cholinesterase, sequence (P81908 whole entry): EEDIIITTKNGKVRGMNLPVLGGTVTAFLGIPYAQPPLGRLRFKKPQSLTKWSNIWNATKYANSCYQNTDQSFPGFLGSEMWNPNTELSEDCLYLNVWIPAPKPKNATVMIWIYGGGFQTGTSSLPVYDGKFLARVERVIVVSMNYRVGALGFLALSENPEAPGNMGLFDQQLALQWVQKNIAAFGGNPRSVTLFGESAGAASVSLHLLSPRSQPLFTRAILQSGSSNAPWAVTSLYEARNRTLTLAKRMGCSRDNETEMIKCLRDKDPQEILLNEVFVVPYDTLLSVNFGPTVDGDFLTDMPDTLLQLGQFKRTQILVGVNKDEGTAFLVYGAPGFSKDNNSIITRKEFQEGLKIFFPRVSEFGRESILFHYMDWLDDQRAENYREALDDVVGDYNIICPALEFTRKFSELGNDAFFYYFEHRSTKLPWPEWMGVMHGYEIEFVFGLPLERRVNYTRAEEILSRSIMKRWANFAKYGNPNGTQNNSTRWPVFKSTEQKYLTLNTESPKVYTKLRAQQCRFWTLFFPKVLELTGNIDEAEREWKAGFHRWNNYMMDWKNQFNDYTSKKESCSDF
Description: Inhibition of equine serum BuChE using butyrylthiocholine iodide as substrate preincubated for 20 mins followed by substrate addition and measured after 5 mins by DTNB-reagent based Ellman's method

cells = conditions: Mus musculus, BV-2
Description: Inhibition of NO production in LPS-induced mouse BV-2 cells pretreated for 1 hr followed by LPS stimulation and measured after 24 hrs by ELISA

[5] = Potency index, ratio of resveratrol IC50 to test compound IC50 for inhibition of NO production in LPS-induced mouse BV-2 cells pretreated for 1 hr followed by LPS stimulation and measured after 24 hrs by ELISA; format: functional; conditions: time 25 hrs

Compound | viability at 24 h, 25 µM [1] | viability at 24 h, 50 µM [2] | viability at 20 µM (PC-12 [3]) | viability at 5 µM (PC-12 [4]) | IC50 (Acetylcholinesterase) | IC50 (Cholinesterase) | IC50 (cells) | Ratio IC50 [5]
O=C(CNc1ccc(Cl)cc1)Nc1ccc(-c2nc(-c3ccnc(Nc4ccc(OC(F)(F)F)cc4)c3)no2)cc1 | 98.8% | 98.2% | 61.6% | 43.6% | 45.2 µM | 7.39 µM | 2.58 µM | –
O=C(CNC1CC1)Nc1ccc(-c2nc(-c3ccnc(Nc4ccc(OC(F)(F)F)cc4)c3)no2)cc1 | 100% | 99.7% | 46.7% | 33.5% | 48.9 µM | 24.3 µM | 5.67 µM | –
O=C(CNc1ccc(Br)cc1)Nc1ccc(-c2nc(-c3ccnc(Nc4ccc(OC(F)(F)F)cc4)c3)no2)cc1 | 99.7% | 99.1% | 46.5% | 37.8% | > 50 µM | 10.5 µM | 4.22 µM | –
Cc1ccccc1NCC(=O)Nc1ccc(-c2nc(-c3ccnc(Nc4ccc(OC(F)(F)F)cc4)c3)no2)cc1 | 99.6% | 99.3% | 55.2% | 45.2% | > 50 µM | 25.8 µM | 8.74 µM | –
Oc1ccc(/C=C/c2cc(O)cc(O)c2)cc1 [RESVERATROL] | – | – | – | – | – | – | 11 µM | –
CCCCNCC(=O)Nc1ccc(-c2nc(-c3ccnc(Nc4ccc(OC(F)(F)F)cc4)c3)no2)cc1 | 99.9% | 98.9% | 44.4% | 40% | > 50 µM | 15.7 µM | 8.24 µM | –
COc1cccc(NCC(=O)Nc2ccc(-c3nc(-c4ccnc(Nc5ccc(OC(F)(F)F)cc5)c4)no3)cc2)c1 | 99.5% | 98.3% | 33.7% | 30.7% | > 50 µM | 33.5 µM | 13.2 µM | –
Cc1cccc(NCC(=O)Nc2ccc(-c3nc(-c4ccnc(Nc5ccc(OC(F)(F)F)cc5)c4)no3)cc2)c1 | 99.6% | 99.2% | 50.7% | 50.1% | > 50 µM | 20.2 µM | 7.29 µM | –
O=C(CNc1ccc(C(F)(F)F)cc1)Nc1ccc(-c2nc(-c3ccnc(Nc4ccc(OC(F)(F)F)cc4)c3)no2)cc1 | 99.9% | 99.7% | 61.7% | 55.8% | 46.5 µM | 1.88 µM | 1.61 µM | –
O=C(CNCc1cccc(Cl)c1)Nc1ccc(-c2nc(-c3ccnc(Nc4ccc(OC(F)(F)F)cc4)c3)no2)cc1 | 99.8% | 99.7% | 43.9% | 33.4% | > 50 µM | > 50 µM | 14.6 µM | –
CCCNCC(=O)Nc1ccc(-c2nc(-c3ccnc(Nc4ccc(OC(F)(F)F)cc4)c3)no2)cc1 | 99.6% | 99.5% | 52.8% | 41.4% | > 50 µM | 23.3 µM | 7.82 µM | –
O=C(CNc1cccc(Cl)c1)Nc1ccc(-c2nc(-c3ccnc(Nc4ccc(OC(F)(F)F)cc4)c3)no2)cc1 | 99.4% | 98.7% | 37.7% | 34.1% | > 50 µM | 12.8 µM | 3.66 µM | –
COc1ccc(NCC(=O)Nc2ccc(-c3nc(-c4ccnc(Nc5ccc(OC(F)(F)F)cc5)c4)no3)cc2)cc1 | 99% | 98.7% | 44.6% | 33.2% | > 50 µM | > 50 µM | 6.95 µM | –
O=C(CNCc1ccccc1)Nc1ccc(-c2nc(-c3ccnc(Nc4ccc(OC(F)(F)F)cc4)c3)no2)cc1 | 99.7% | 99.5% | 53.5% | 43.2% | > 50 µM | 39.2 µM | 7.48 µM | –
O=C(CNCc1cccc(F)c1)Nc1ccc(-c2nc(-c3ccnc(Nc4ccc(OC(F)(F)F)cc4)c3)no2)cc1 | 98.4% | 96.7% | 36.2% | 28.1% | > 50 µM | 45.3 µM | 13 µM | –
O=C(CNC1CCCC1)Nc1ccc(-c2nc(-c3ccnc(Nc4ccc(OC(F)(F)F)cc4)c3)no2)cc1 | 99.5% | 98.2% | 57% | 44.1% | > 50 µM | 16.6 µM | 2.66 µM | –
Cc1ccc(NCC(=O)Nc2ccc(-c3nc(-c4ccnc(Nc5ccc(OC(F)(F)F)cc5)c4)no3)cc2)cc1 | 100% | 99.8% | 49.1% | 37.9% | > 50 µM | 19.3 µM | 5.97 µM | –
CC(C)CNCC(=O)Nc1ccc(-c2nc(-c3ccnc(Nc4ccc(OC(F)(F)F)cc4)c3)no2)cc1 | 99.9% | 99.6% | 43.9% | 34.1% | > 50 µM | 29.4 µM | 3.88 µM | –
O=C(CNc1ccc(F)c(F)c1)Nc1ccc(-c2nc(-c3ccnc(Nc4ccc(OC(F)(F)F)cc4)c3)no2)cc1 | 99.4% | 97.3% | 45.8% | 35.7% | > 50 µM | 9.88 µM | 4.8 µM | –
O=C(CNCc1ccc(C(F)(F)F)cc1)Nc1ccc(-c2nc(-c3ccnc(Nc4ccc(OC(F)(F)F)cc4)c3)no2)cc1 | 99.7% | 99.4% | 33% | 25.7% | > 50 µM | 30.9 µM | 8.48 µM | –
O=C(CNCc1ccc(F)cc1)Nc1ccc(-c2nc(-c3ccnc(Nc4ccc(OC(F)(F)F)cc4)c3)no2)cc1 | 100% | 99.8% | 48.6% | 41.9% | > 50 µM | 37.8 µM | 9.23 µM | –
O=C(CNc1cccc(F)c1)Nc1ccc(-c2nc(-c3ccnc(Nc4ccc(OC(F)(F)F)cc4)c3)no2)cc1 | 99.6% | 99.3% | 58.5% | 39.4% | > 50 µM | 5.51 µM | 3.16 µM | –
O=C(CNc1ccccc1)Nc1ccc(-c2nc(-c3ccnc(Nc4ccc(OC(F)(F)F)cc4)c3)no2)cc1 | 99.8% | 99.4% | 58.4% | 46.9% | > 50 µM | 14.1 µM | 0.42 µM | 26
O=c1c(O)c(-c2ccc(O)c(O)c2)oc2cc(O)cc(O)c12 [QUERCETIN] | 99.6% | 99.5% | 59.4% | 48.2% | – | – | – | –
